Tests used:
PD-1/PD-L1 [1] = molecular target: T1, PD-1/PD-L1 (Homo sapiens, UniProt Q9NZQ7); experiment: PD-1/PD-L1 biochemical protein-protein interaction assay (ALPHA); type: binding; details: 0.3 nM His tagged PD-L1, 2.5 nM biotinylated Fc-PD-1; 60 minutes at 25° C.; read-out: IC50 PD-L1-PD1
Experimental: PD-1/PD-L1 & CTLA/CD80 Biochemical Protein-Protein Interaction Assay
Compounds were tested in biochemical protein-protein interaction assays to determine if they can specifically block the interaction between the extracellular domains of PD-1/PD-L1 or CTLA/CD80. Binding of the protein pairs is measured using a bead based Amplified Luminescent Proximity Homogeneous Assay (ALPHA) platform. Binding of each protein pair results in proximity of the donor and acceptor beads which leads to an increase in ALPHA signal. Disruption of the protein-protein interaction with a test compound results in a decrease in ALPHA signal. Assays are performed in 25 mM Hepes (pH 7.4), 150 mM NaCl, 3.4 mM EDTA, 0.005% Tween 20, and 0.01% BSA. Final protein concentration in the assays were 0.3 nM (His tagged PD-L1), 2.5 nM (biotinylated Fc-PD-1), 1 nM (His tagged CTLA4) and 1 nM (biotinylated CD80). After an assay reaction time of 60 minutes at 25° C., binding was measured with addition of 20 μg/mL ALPHA assay acceptor beads (anti-His coated) and 20 µg/mL ALPHA assay donor beads (streptavidin coated). IC50 values were calculated from the fit of the dose-response curves to a four-parameter equation. Representative data are shown below in Table 3.
Target sequence in this assay (Q9NZQ7 19-238 limits assumed): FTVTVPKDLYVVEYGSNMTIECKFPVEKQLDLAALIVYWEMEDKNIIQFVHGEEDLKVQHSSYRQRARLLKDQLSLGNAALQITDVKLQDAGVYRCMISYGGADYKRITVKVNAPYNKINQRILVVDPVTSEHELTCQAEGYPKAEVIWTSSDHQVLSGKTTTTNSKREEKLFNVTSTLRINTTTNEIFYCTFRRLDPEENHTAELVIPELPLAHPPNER

PD-L1 = molecular target: T2, PD-L1 (Homo sapiens, UniProt Q9NZQ7); experiment: PD-L1/PD-L1 dimerization biochemical protein-protein interaction assay (ALPHA); details: 0.5 nM His tagged PD-L1 and 0.5 nM FLAG tagged PD-L1; compound induced dimerization; read-out: AC50 PDL1 Dimer 1 nM
T2 construct: determine if they can specifically dimerize the extracellular domains of PD-L1
Experimental: PD-L1/PD-L1 Dimerization Biochemical Protein-Protein Interaction Assay
Compounds were tested in biochemical protein-protein interaction assays to determine if they can specifically dimerize the extracellular domains of PD-L1. Dimerization of the proteins (His-tagged PD-L1 and FLAG-tagged PD-L1) is measured using a bead based Amplified Luminescent Proximity Homogeneous Assay (ALPHA) platform. […] Assays are performed in 25 mM Hepes (pH 7.4), 150 mM NaCl, 3.4 mM EDTA, 0.005% Tween 20, and 0.01% BSA. Final protein concentration in the assays were 0.5 nM (His tagged PD-L1) and 0.5 nM (FLAG tagged PD-L1). After an assay reaction time of 2 hours at 25° C., 20 μg/mL (final assay concentration) ALPHA assay acceptor beads (anti-His coated) were added and incubated for 60 minutes at 25° C. Binding was measured following a final 60 minute incubation with 40 μg/mL (final assay concentration) ALPHA assay donor beads (anti-FLAG coated). AC50 values were calculated from the fit of the dose-response curves to a four-parameter equation (Table 4).

PD-1/PD-L1 [2] = molecular target: T1, PD-1/PD-L1; experiment: PD-1/PD-L1 NFAT reporter assay (co-culture of aAPC-PD-L1 CHO cells and Jurkat cells overexpressing PD-1, NFAT luciferase); type: cell-based; set-up: expressed in transfected cells; host or cells: CHO cells (aAPC-PD-L1) co-cultured with Jurkat cells overexpressing PD-1; details: co-culture incubated for 6 hrs at 37° C.; luciferase under NFAT control
Experimental: PD-1/PD-L1 NFAT Reporter Assay
Compounds were tested in a functional co-culture reporter assay in which TCR-mediated NFAT activity is inhibited by the engagement of PD-1 with PD-L1. […] CHO cells expressing surface-bound anti-CD3 antibodies and PD-L1 (artificial antigen presenting cells, aAPC-PD-L1) were first seeded overnight. Jurkat cells overexpressing PD-1 and expressing a luciferase construct under NFAT control are diluted in RPMI assay medium (RPMI 1640 with 2% FBS), mixed with compounds, and immediately seeded on the monolayer of aAPC-PD-L1. The co-culture is then incubated for 6 hrs at 37° C. Luciferase activity is assessed by adding the ONE-Glo reagent and measuring luminescence with a plate reader. EC50 values are calculated from the fit of the dose-response curves to a four-parameter equation (Table 4).
Target sequence in this assay (Q9NZQ7 19-290): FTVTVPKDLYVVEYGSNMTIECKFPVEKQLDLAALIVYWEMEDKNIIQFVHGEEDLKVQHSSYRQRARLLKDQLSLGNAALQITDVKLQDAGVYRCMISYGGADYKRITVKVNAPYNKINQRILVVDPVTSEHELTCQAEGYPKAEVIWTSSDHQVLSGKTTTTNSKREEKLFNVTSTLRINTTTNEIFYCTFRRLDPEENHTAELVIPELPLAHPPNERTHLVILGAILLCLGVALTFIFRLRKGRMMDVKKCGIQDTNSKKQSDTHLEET

T2 sequence (Q9NZQ7 19-238 limits assumed): as the sequence (Q9NZQ7 19-238 limits assumed) above
T2 sequence (Q9NZQ7 19-238 limits assumed): as above

Row | SMILES | IC50 (PD-1/PD-L1 [1]) | AC50 (PD-L1) | EC50 (PD-1/PD-L1 [2])
1 | COc1nc(O[C@H]2CCc3c(-c4cccc(-c5ccc6c(n5)CCNC6)c4Cl)cccc32)c(C(F)(F)F)cc1CN1CC[C@@H](C(=O)O)C1 [Compound 1, (R)-1-((6-(((S)-4-(2-chloro-3-(5,6,7,8-tetrahydro-1,6-naphthyridin-2-yl)phenyl)-2,3-dihydro-1H-inden-1-yl)oxy)-2-methoxy-5-(trifluoromethyl)pyridin-3-yl)methyl)pyrrolidine-3-carboxylic acid] | 0.064 nM | 135 nM | 1260 nM
2 | COc1nc(O[C@H]2CCc3c(-c4cccc(-c5nc6c(s5)CCNC6)c4Cl)cccc32)c(C(F)(F)F)cc1CN1CC[C@@H](C(=O)O)C1 [Compound 2, (R)-1-((6-(((S)-4-(2-chloro-3-(4,5,6,7-tetrahydrothiazolo[4,5-c]pyridin-2-yl)phenyl)-2,3-dihydro-1H-inden-1-yl)oxy)-2-methoxy-5-(trifluoromethyl)pyridin-3-yl)methyl)pyrrolidine-3-carboxylic acid] | 0.064 nM | 23 nM | 3250 nM
3 | COc1nc(-c2cccc(-c3cccc(-c4ccc5c(c4)OCCNC5)c3Cl)c2Cl)ccc1CNC[C@@H](O)CC(=O)O [Compound 6] | 0.427 nM | 301 nM | 170 nM
4 | Cc1c(COc2cc(OCc3cc(Cl)cc(C#N)c3)c(CN[C@@](C)(CO)C(=O)O)cc2Cl)cccc1-c1cccc(-c2ccc3c(c2)CNCC3)c1C [Compound 7] | 0.955 nM | 75 nM | 142 nM
5 | Cc1c(COc2cc(OCc3cc(C#N)cc(C#N)c3)c(CN[C@@](C)(CO)C(=O)O)cc2Cl)cccc1-c1cccc(-c2ccc3c(c2)CNCC3)c1C [Compound 8] | 0.293 nM | 42.9 nM | 90 nM
6 | Cc1c(COc2cc(OCCCC#N)c(CN[C@@](C)(CO)C(=O)O)cc2Cl)cccc1-c1cccc(-c2ccc3c(c2)CNCC3)c1C [Compound 9] | 0.126 nM | 63.8 nM | 173 nM
7 | Cc1c(COc2cc(OCc3cncc(C#N)c3)c(CNC[C@@H](O)CC(=O)O)cc2Cl)cccc1-c1cccc(-c2ccc3c(c2)NC(=O)CNC3)c1C [Compound 11] | 0.686 nM | 599 nM | 178 nM
8 | CNC(=O)NC1CNCc2cc(-c3cccc(-c4cccc(-c5ccc(CNC[C@@H]6CCC(=O)N6)c(OC)n5)c4Cl)c3Cl)ccc21 (stereo partly drawn) [Compound 12] | 0.17 nM | 55.3 nM | 165 nM

The remaining lines, values ahead:

Row | IC50 (PD-1/PD-L1 [1]) | AC50 (PD-L1) | EC50 (PD-1/PD-L1 [2]) | SMILES
9 | 0.064 nM | 76.9 nM | 123 nM | Cc1c(COc2cc(OCc3cncc(C#N)c3)c(CN[C@@](C)(CO)C(=O)O)cc2Cl)cccc1-c1cccc(-c2ccc3c(c2)CNCC3O)c1C (stereo partly drawn) [Compound 3]
10 | 0.064 nM | 86.5 nM | 90 nM | Cc1c(COc2cc(OCc3cncc(C#N)c3)c(CN[C@@](C)(CO)C(=O)O)cc2Cl)cccc1-c1cccc(-c2ccc3c(c2)NCCNC3)c1C [Compound 4]
11 | 0.136 nM | 57 nM | 134 nM | Cc1c(COc2cc(OCc3cncc(C#N)c3)c(CN[C@@](C)(CO)C(=O)O)cc2Cl)cccc1-c1cccc(-c2ccc3c(c2)CNCC3)c1C [Compound 5]
12 | 0.187 nM | 249 nM | 103 nM | Cc1c(COc2cc(OCc3cncc(C#N)c3)c(CN[C@@](C)(CO)C(=O)O)cc2Cl)cccc1-c1cccc(-c2ccc3c(c2)NC(=O)CNC3)c1C [Compound 10]
13 | 0.147 nM | 26.9 nM | 90 nM | Cc1c(COc2cc(OCc3cncc(C#N)c3)c(CNC[C@@H](O)CC(=O)O)cc2Cl)cccc1-c1cccc(-c2ccc3c(c2)CNCC3NC(=O)NC2CC2)c1C (stereo partly drawn) [Compound 13]
14 | 0.064 nM | 10.7 nM | 69 nM | Cc1c(COc2cc(OCc3cncc(C#N)c3)c(CN[C@@](C)(CO)C(=O)O)cc2Cl)cccc1-c1cccc(-c2ccc3c(c2)CNCC3NC(=O)NC2CC2)c1C (stereo partly drawn) [Compound 14]
15 | 0.064 nM | 7.47 nM | 59 nM | CNC(=O)N[C@@H]1CNCc2cc(-c3cccc(-c4cccc(COc5cc(OCc6cncc(C#N)c6)c(CN[C@@](C)(CO)C(=O)O)cc5Cl)c4C)c3C)ccc21 [Compound 15]

From patent US11236085B2, “PD-1/PD-L1 inhibitors” (Gilead Sciences, Inc., priority 2018, dated 2022)
